Data reported in EP0166969A2, “Haemostyptic” (priority 1984, dated 1986).
“Also recorded” adds a separate entry of the source.

Assays:
Schweineleber = assay: Comparative haemostyptic efficacy of components, mixtures and esters in rat models and pig liver; assay type: in vivo, Ratten; conditions: qualitative
Description: Unter einem Hämostypticum versteht man Mittel zur Blutstillung, die sowohl die Blutungszeit als auch den Blutverlust bei mechanischen Verletzungen herabsetzen. Die Blutgerinnung ist ein in den letzten Jahren intensiv untersuchter komplexer Vorgang, der sich in verschiedenster Weise beeinflussen läßt. Die Blutstillung und der Blutverlust hängen wiederum in erster Linie vom Umfang und der Geschwindigkeit der Blutgerinnung ab, jedoch spielen hier auch noch weitere Faktoren mit hinein, die bisher noch nicht ausreichend untersucht und geklärt werden konnten. Eine besondere Schwierigkeit bei der Untersuchung von Hämostyptica ist die Erarbeitung von zuverlässigen und reproduzierbaren Versuchsbedingungen am Menschen und am Tier. Eine umfassende Zusammenstellung der bisher bekannten Methoden sowie die Beschreibung einer verbesserten Methode an der Ratte wird beschrieben in der Dissertation von Ennen 1981, am Institut für Pharmakologie, Toxikologie und Pharmazie der Tierärtzlichen Hochschule Hannover unter Leitung von Prof. Dr. K. Kaemmerer (Methodenbeitrag zur Bestimmung von Blutungszeit und Blutverlust bei Leberparenchymblutungen kleiner Versuchstiere). Im Rahmen dieser Untersuchungen wurden auch verschiedene bekannte Hämostasesysteme vergleichend untersucht. Zu den untersuchten Produkten gehörte auch das Hämostypticum Revici, welches von der Anmelderin seit Jahren vertrieben wird. […] Das Hämostypticum Revici enthält neben geringen Mengen von Zitronensäure, Wasserstoffperoxid und n-Butanol. […] Dabei dienten als Modelle in erster Linie die bereits von Ennen entwickelten Tiermodelle der Ratten sowie ähnliche Versuche an der Schweineleber. Die Untersuchungen wurden zusätzlich ausgedehnt auf mögliche Metaboliten und Zersetzungsprodukte der Zitronensäure, nämlich Cis-Aconitsäure, Acetondicarbonsäure und Itakonsäure.

Rattenleber = assay: Bleeding time and blood loss in rats according to Ennen (1981), liver parenchymal bleeding; assay type: in vivo, Ratten; conditions: tested oral and IV, standard solutions suspended in 0,9% saline, route of the values not stated
Description: Unter einem Hämostypticum versteht man Mittel zur Blutstillung, die sowohl die Blutungszeit als auch den Blutverlust bei mechanischen Verletzungen herabsetzen. Die Blutgerinnung ist ein in den letzten Jahren intensiv untersuchter komplexer Vorgang, der sich in verschiedenster Weise beeinflussen läßt. Die Blutstillung und der Blutverlust hängen wiederum in erster Linie vom Umfang und der Geschwindigkeit der Blutgerinnung ab, jedoch spielen hier auch noch weitere Faktoren mit hinein, die bisher noch nicht ausreichend untersucht und geklärt werden konnten. Eine besondere Schwierigkeit bei der Untersuchung von Hämostyptica ist die Erarbeitung von zuverlässigen und reproduzierbaren Versuchsbedingungen am Menschen und am Tier. Eine umfassende Zusammenstellung der bisher bekannten Methoden sowie die Beschreibung einer verbesserten Methode an der Ratte wird beschrieben in der Dissertation von Ennen 1981, am Institut für Pharmakologie, Toxikologie und Pharmazie der Tierärtzlichen Hochschule Hannover unter Leitung von Prof. Dr. K. Kaemmerer (Methodenbeitrag zur Bestimmung von Blutungszeit und Blutverlust bei Leberparenchymblutungen kleiner Versuchstiere). Im Rahmen dieser Untersuchungen wurden auch verschiedene bekannte Hämostasesysteme vergleichend untersucht. Zu den untersuchten Produkten gehörte auch das Hämostypticum Revici, welches von der Anmelderin seit Jahren vertrieben wird. […] Das Hämostypticum Revici enthält neben geringen Mengen von Zitronensäure, Wasserstoffperoxid und n-Butanol. Da bei der Anwendung des Hämostypticums Revici immer wieder schwankende und nicht immer reproduzierbare Ergebnisse beobachtet wurden, wurden eingehende Untersuchungen über die Wirksamkeit aller drei Komponenten und Gemische derselben auf ihre Wirksamkeit hin untersucht. Dabei dienten als Modelle in erster Linie die bereits von Ennen entwickelten Tiermodelle der Ratten sowie ähnliche Versuche an der Schweineleber. Die Untersuchungen wurden zusätzlich ausgedehnt auf mögliche Metaboliten und Zersetzungsprodukte der Zitronensäure, nämlich Cis-Aconitsäure, Acetondicarbonsäure und Itakonsäure.
Die Wirksamkeit der Substanzen wurde sowohl oral als auch IV getestet mit Standardlösungen suspendiert in 0,9%-iger Kochsalzlösung bei Ratten nach Ennen (1981). Gemessen wurden Blutungszeit und Blutverlust in % der Abnahme. Tributylcitrat ergab eine Abnahme der Blutungszeit von 27% und eine Abnahme des Blutverlustes von 44%. Die entsprechenden Werte für Trihexylcitrat lagen bei 20 bzw. 24%. Die Werte für Aconit-tributylester bei 22 bzw. 16% und für Tricarballylsäure-tributylester bei 29 bzw. 8%.

[1] = Toxicity of the new esters (test not described); conditions: qualitative
Ratte [2] = conditions: rat, in vivo, iv
Procedure: (§1) Hierbei ist zu beachten, daß bei der Ratte als maximale Volumenbelastung 20 ml/kg gelten.

[3] = Acute toxicity (LD50, oral tolerance) in the rat; assay type: in vivo; conditions: in vivo, applicant's own experiments
Procedure: as §1

Ratte [4] = assay: Acute toxicity (LD50, oral tolerance) in the rat; assay type: in vivo
Procedure: as §1

Schweine = assay: Pig experiments: circulatory effect; assay type: in vivo; conditions: pigs; amount of n-Butanol present in Hämostypticum Revici, given alone
Description: Bei den Schweineversuchen hat sich beispielsweise gezeigt, daß die im Hämostypticum Revici vorhandene Menge n-Butanol für sich allein schon zu Kreislaufdepressionen führt. […] Die Wirksamkeit kann daher nicht dadurch erklärt werden, daß das TBC im Körper zu Zitronensäure und n-Butanol gespalten wird.

Ratte [5] = conditions: rat; Merck Index, 10th ed., no. 1513; cited from earlier work

| Molecule | hämostyptische Wirksamkeit (Schweineleber) | Abnahme der Blutungszeit (Rattenleber) [%] | Abnahme des Blutverlustes (Rattenleber) [%] | Toxizität [1] | also measured |
| --- | --- | --- | --- | --- | --- |
| O=C(O)CC(=O)CC(=O)O [Acetondicarbonsäure] | praktisch wirkungslos | – | – | – | – |
| CCCCOC(=O)C=C(CC(=O)OCCCC)C(=O)OCCCC [Aconit-tributylester] | durchaus interessante und für die Praxis brauchbare Wirkung | 22 | 16 | niedriger Toxizität | – |
| O=C(O)/C=C(/CC(=O)O)C(=O)O [Cis-Aconitsäure] | praktisch wirkungslos | – | – | – | – |
| C=C(CC(=O)O)C(=O)O [Itakonsäure] | praktisch wirkungslos | – | – | – | – |
| CCCCOC(=O)CC(O)(CC(=O)OCCCC)C(=O)OCCCC [TBC, Tri-n-butylcitrat] | – | 27 | 44 | – | spontaner Exitus nach Infusion (Ratte [2]): 19,4 ml/kg; LD50 [3]: 20800 mg/kg; akute oder klinische manifeste Veränderungen (Ratte [4]; oral 10 ml/kg (printed as 10,4 mg/kg)): keinerlei akute oder klinische manifeste Veränderungen; akute oder klinische manifeste Veränderungen (Ratte [4]; oral 20 ml/kg (printed as 20,8 mg/kg)): keinerlei akute oder klinische manifeste Veränderungen |
| CCCCOC(=O)CC(CC(=O)OCCCC)C(=O)OCCCC [Tricarballylsäure-tributylester] | durchaus interessante und für die Praxis brauchbare Wirkung | 29 | 8 | niedriger Toxizität | – |
| CCCCCCOC(=O)CC(O)(CC(=O)OCCCCCC)C(=O)OCCCCCC [Trihexylcitrat] | – | 20 | 24 | niedriger Toxizität | – |
| O=C(O)CC(O)(CC(=O)O)C(=O)O [Zitronensäure] | praktisch wirkungslos | – | – | – | – |
| CCCCO [n-Butanol] | eine gewisse hämostyptische Wirksamkeit; also recorded: einen gewissen Effekt | – | – | – | Kreislaufwirkung (Schweine): Kreislaufdepressionen; LD50 (Ratte [5]): 4,36 g/kg |
| Wasserstoffperoxid [H202] | einen gewissen Effekt | – | – | – | – |
